Test results: patent publication US12486218B2, “Compounds advantageous in the treatment of central nervous system diseases and disorders” (AurimMed Pharma, Inc., priority 2008, dated 2025)
Values joined by “and” are separate entries in the source; they are usually repeats but may differ in a detail not shown here. Identical values can stand only once. Like-named read-outs stand apart in the source and are kept apart here.

How the values were obtained:
rats [1] = assay: Pilocarpine-induced Status Epilepticus in Rats (prevention; intervention @ 30 min); settings: for Prevention, Protection: rat, in vivo, 200 mg/kg
Protocol: The animal testing was performed using the protocols developed in the Anticonvulsant Screening Program (ASP) at the National Institute of Neurological Disorders and Stroke (NINDS), National Institutes of Health (NIH).

mice [2] = settings: mouse, in vivo, ip
Protocol: (§1) The animal testing was performed according to methods known in the relevant art.

SMN2 promoter = SMN2 promoter β-lactamase reporter assay in NSC34 motor neuron-like cells; format: cell-based
Protocol: FIG. 30 illustrates a screen for SMN2 expression of a number of compounds described herein.
SMN2 promoter activity was measured using NSC34 motor neuron-like cells stably transfected with a β-lactamase (BLA) reporter gene under the control of a 3.4-kilobase fragment of the SMN2 promoter. D156844 was used as a positive control for this assay.

mice [3] = assay: 6 Hz (minimal clonic seizure) model, mice i.p.; format: in vivo; settings: ip; for ED50: Mus musculus
mice [4] = assay: Maximal Electroshock Seizure (MES) test, mice i.p.; format: in vivo; settings: for ED50: Mus musculus
mice [5] = assay: Subcutaneous Metrazol Seizure threshold (s.c. MET) test, mice i.p.; format: in vivo; settings: for ED50: Mus musculus
in vivo = settings: mouse, ip
Protocol: as §1

rats [6] = assay: s.c. MET test, rats p.o.; format: in vivo; settings: for ED50: Rattus norvegicus, p.o.
mice [7] = assay: Minimal motor impairment (MID50), mice i.p.; settings: for MID50 (median minimal motor impairment dose): mice, i.p.
Protocol: as §1

rats [8] = assay: MES test, rats p.o.; format: in vivo; settings: for ED50: Rattus norvegicus, po
C3A hepatocyte cells [9] = assay: ACTIVTox Cell Proliferation Assay; format: cell-based; settings: at a concentration of 100 μM
C3A hepatocyte cells [10] = assay: ACTIVTox LDH release assay; format: cell-based; settings: for LDH release, mean fold control: at 100 μM, C3A hepatocyte cells, value below 1.75 = no cyto- or hepatotoxic activity; for cyto- or hepatotoxicity, ACTIVTox data: at physiologically relevant concentrations (i.e., <100 µM)
Protocol: Compounds A, I, H, and F were tested by Stem Cell Innovations, Inc. (Houston, TX) in their ACTIVTox® Human Liver Cell-based assays (using C3A hepatocyte cells). Specifically, the compounds were tested in the LDH release assay, which determines the release of Lactate DeHydrogenase (an indicator of cell death) at various concentrations of test compound.
A concentration of 100 µM of test compound is a much higher level of exposure to liver cells than would ever be expected under physiological conditions. Therefore, using 100 μM as a standard test concentration (for comparative purposes), the ratio of the absorbance (which measures the level of LDH release) resulting from the presence of the test compound versus the negative control is a value known as the “average (or mean) fold control” (Average Fold Control=Average of Absorbance/Average of Negative Control).

rats [11] = assay: Hippocampal Kindled Rats model; format: in vivo; settings: for ED50: Rattus norvegicus
[12] = test system: inclusion of exon 7 in SMN2 mRNAs; assay: Exon 7 inclusion BLA reporter assay in NSC34 cell line; format: cell-based
From the text: To measure changes in the inclusion of exon 7 in SMN2 mRNAs, another NSC34 cell line was used that stably transfected with a reporter construct which expresses BLA when exon 7 is included in the SMN2 minigene mRNAs. 5-(N-ethyl-N-isopropyl)-amiloride (EIPA) was used as a positive control for this assay. Data for tis assay is illustrated in FIG. 30.

rats [13] = assay: Minimal motor impairment (MID50), rats p.o.; format: in vivo
rats [14] = assay: Preliminary Hippocampal Kindling Screening in rats (i.p.); format: in vivo; settings: at 65 mg/kg
rats [15] = assay: Sciatic nerve ligation model in rats; format: in vivo; settings: 100 mg/kg
Protocol: [The response (threshold for foot withdrawal) was measured in grams.]

[16] = test system: type II SMA fibroblasts (GM03813); assay: SMN protein localization, gem counting in type II SMA fibroblasts; format: cell-based; settings: 100 nM-10 μM, 5 days
Protocol: To validate the SMN2 promoter and exon 7 screens, the effects of compounds H, H (acid form), AY, F, BX, and BY were evaluated on the basis of expression and localization of SMN protein in type II SMA fibroblasts (GM03813). In a normal cell, SMN protein localized within the nucleus to discreet foci known as gems. In SMN-deficient SMA cells, the number of gems is greatly diminished. Although the function of gems is unknown, it is believed that they are somehow involved in the snRNP assembly function of SMN. Gem counting can, therefore, be considered an assay for SMN function.
GM03813 fibroblasts were treated with different doses (100 nM-10 μM) of compounds H, H (acid form), AY, F, BX, and BY for 5 days. SMN immunostaining was then completed on these cells and the number of gems was counted in 100 randomly-selected nuclei. […] In fact, the gem counts at the highest dose of compound H approach those observed for carrier fibroblasts (GM03814). When compared against treatment with 1 μM D157495—a D156844 derivative, all of the compounds tested performed as well as or, even better than D157495.

mice [17] = assay: Audiogenic Seizure susceptible (AGS) test, mice i.p.; format: in vivo; settings: Mus musculus, ip
mice [18] = assay: Corneal kindled mouse model; format: in vivo; settings: for ED50: Mus musculus
[19] = test system: rat dopaminergic N27 cells; assay: N27 protection assay against oxidative stress (H2O2 or MPP+; MTT and LDH); format: cell-based; settings: drug 24 hours before 200 μM H2O2 or 640 μM MPP+
How it was run: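 Protection mode: N27 cells pretreated with drug at various concentrations for 24 hours, then exposed to 200 μM H2O2 or 640 μM MPP+. Recovery mode: cells damaged by H2O2 first, drug applied afterwards. Viability measured by MTT reduction and cytotoxicity by released LDH.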

sodium channels = settings: by way of comparison; cited from earlier work
rats [20] = settings: male versus female kindled rats; cited from earlier work
[21] = Rattus norvegicus, 0.5 h, read-out: Intervention @ 30 min, Protection
[22] = Rattus norvegicus, read-out: Prevention, Protection
[23] = mice, i.p., read-out: 6 Hz ED50

COc1ccc(C(C)CC(N)=O)cc1 (racemic) [BZ]
Prevention, Protection (rats [1]): 100%
MID50, result in words (mice [2]): No
Promoter (SMN2 promoter test, summary YES/NO) (SMN2 promoter): YES
SMN2 promoter activity (SMN2 promoter): increased SMN2 promoter activity

Cc1ccc(C(CC(N)=O)C2CC2)cc1 (stereo not shown) [AL, 3-Cyclopropyl-3-ρ-tolyl-propionamide]
Prevention, Protection (rats [1]): 100%
MID50, result in words (mice [2]): No
6 Hz (32 mA), fraction of animals (mice [3]; mouse, in vivo, 100 mg/kg): 4/4, 2/4, and 2/4 , 1/4 @
SMN2 promoter activity (SMN2 promoter): increased SMN2 promoter activity
activity in the MES test (mice [4]; mouse, in vivo, 100 mg/kg): activity

NC(=O)CC1(c2cccc(Cl)c2)CCCC1 [CX]
s.c. MET, fraction of animals (mice [5]; mouse, in vivo, 100 mg/kg): 2/4 @ 0.25 hrs
MID50, fraction of animals (mice [2]; 100 mg/kg): 8/8 @ 0.25 hrs
Promoter (SMN2 promoter test, summary YES/NO) (SMN2 promoter): YES
SMN2 promoter activity (SMN2 promoter): increased SMN2 promoter activity
MES, fraction of animals (mice [4]; mouse, in vivo, ip, 100 mg/kg): 4/4 @ and 3/4, 2/4 @

CC(C)(CC(N)=O)c1ccc(Cl)cc1 [Compound A, 3-(4-Chlorophenyl)-3-methylbutyramide]
responders at 120 mg/kg (rats [1]; [21]): 57%
responders at 65 mg/kg (rats [1]; [22]): 86%
TD50 (in vivo): 108 mg/kg
ED50 (rats [6]): 45 mg/kg
MID50 (median minimal motor impairment dose) (mice [7]): 107.87 mg/kg
ED50 (mice [5]; mice i.p., @ 0.25 hr): 39.3 mg/kg
ED50 (mice [5]; mice, i.p.): 39.3 mg/kg
ED50 (rats [8]): 28.8 mg/kg
Cell Proliferation Assay, mean fold control (C3A hepatocyte cells [9]): 1.15
toxicity to proliferating cells (C3A hepatocyte cells [9]): non-toxic
LDH release, mean fold control (C3A hepatocyte cells [10]): 1.05
cyto- or hepatotoxicity, ACTIVTox data (C3A hepatocyte cells [10]): not cyto- or hepatotoxic
ED50 (mice [3]; [23]): 47.6 mg/kg
ED50 (rats [11]): 26 mg/kg
SMN2 promoter activity (SMN2 promoter; treatment for 19 hours at a concentration of 1 μM): increased SMN2 promoter activity
ED50 (mice [4]; ip, mice): 41.6 mg/kg
ED50 (mice [4]; ip, mice i.p., @ 0.25 hr): 41.6 mg/kg
effect on the inclusion of exon 7 in SMN2 transcripts ([12]; NSC34 exon 7 BLA reporter cells): positive effect on the inclusion of exon 7
Exon 7 inclusion (summary YES/NO) ([12]; Table 13 summary): YES
MID50 (rats [13]): 244.90 mg/kg
seizure score, Preliminary Hippocampal Kindling Screening (rats [14]): zero

CC(CC(N)=O)c1cccc(C(F)(F)F)c1 (stereo not shown) [Compound G, 3-[3-(trifluoromethyl)-phenyl]butyramide]
responders at 200 mg/kg (rats [1]; [21]): 88%
responders at 200 mg/kg (rats [1]; [22]): 100%
activity in the s.c. MET test (rats [6]; at 30 mg/kg): activity
MID50, fraction of animals (mice [7]; mice i.p., 100 mg/kg @ 0.5 hr): 7/8 @0.5 hr
MID50 (median minimal motor impairment dose) (mice [7]): <100 mg/kg
ED50 (mice [5]; mice, i.p.): ≤ 100 mg/kg
s.c. MET, fraction of animals (mice [5]; mice i.p., 100 mg/kg @ 0.5 hr): 1/1 @0.5
activity in the MES test (rats [8]; at 30 mg/kg): activity
allodynic threshold (rats [15]; 1 hour post-administration): 275 % of the control
allodynic threshold (rats [15]; 2 hours post-administration): 219 % of the control
allodynic threshold (rats [15]; 4 hours post-administration): 175 % of the control
seizure score, Hippocampal Kindled Rats model (rats [11]; rats, at 100 mg/kg): significantly lowering the seizure score
ED50 (mice [4]; ip, mice): < 100 mg/kg
MES, fraction of animals (mice [4]; mice i.p., 100 mg/kg @ 0.5 hr): 3/3 @0.5
MES, fraction of animals (mice [4]; mice i.p., 100 mg/kg @ 4.0 hr): hr, 1/3 @

CC(CC(N)=O)c1ccc(C(F)(F)F)cc1 (stereo not shown) [F, 3-[4-(trifluoromethyl)-phenyl]butyramide]
responders at 65 mg/kg (rats [1]; [22]): 14%
gem counts (SMN immunostaining, 100 nuclei) [16]: increase gem counts in a dose-dependent manner
TD50 (in vivo): > 200 mg/kg
ED50 (rats [6]): > 250 mg/kg
MID50 (TD50) (mice [7]; mice i.p., @ 0.25 hr): 208.37
MID50 (median minimal motor impairment dose) (mice [7]): 208.37 mg/kg
ED50 (mice [5]; mice i.p., @ 1.0 hr): 85.5 mg/kg
ED50 (mice [5]; mice, i.p.): 85.5 mg/kg
ED50 (mice [17]; mice): 41.3 mg/kg
ED50 (mice [17]; mice i.p., @ 2.0 hrs): 41.3 mg/kg
ED50 (rats [8]): 26.4 mg/kg
LDH release, mean fold control (C3A hepatocyte cells [10]): 1.47
cyto- or hepatotoxicity, ACTIVTox data (C3A hepatocyte cells [10]): not cyto- or hepatotoxic
ED50 (mice [3]; mice i.p., @ 0.5 hrs, read-out: 6 Hz (32 mA) ED50): 80.8 mg/kg
ED50 (mice [3]; [23]): 80.8 mg/kg
ED50 (rats [11]): 29 mg/kg
ED50 (mice [4]; ip, mice): 85.3 mg/kg
ED50 (mice [4]; ip, mice i.p., @ 2.0 hrs): 85.3 mg/kg
MID50 (rats [13]): >500 (none observed) mg/kg
ED50 (mice [18]; ip, mice i.p., @1.0 hrs, read-out: Corneal Kindled ED50): 60.6 mg/kg
ED50 (mice [18]; read-out: ED50, corneal kindled mouse model): 60.6 mg/kg
seizure score, corneal kindled mouse model (mice [18]; at 100 mg/kg): zero
neuroprotective effect against H2O2 and MPP+ oxidative stresses (MTT and LDH assays) [19]: statistically significant, dose-dependent neuroprotection

Nc1nnc(-c2cccc(Cl)c2Cl)c(N)n1 [lamotrigine]
% of control inhibited, sodium currents, typical sodium-channel-blocking drugs (sodium channels): about 50%

O=C1NC(=O)C(c2ccccc2)(c2ccccc2)N1 [phenytoin]
% of control inhibited, sodium currents, typical sodium-channel-blocking drugs (sodium channels): about 50%
efficacy in the two genders (comparison drug) (rats [20]): significantly less effective in male kindled rats than it is in female kindled rats
